# Laboratory results taken from patent US20170001990A1 (Genentech, Inc., priority 2014, published 2017).
# Where “and” joins values, the source holds several entries; their conditions need not be identical. Equal entries are not always repeated.
# Target: Human recombinant carboxy-terminal his-tagged LDHA (amino acids 2-332) (Homo sapiens, UniProt P00338)
# Test: LDHA enzyme inhibition assay (NADH fluorescence)
# Conditions: LDHA IC50 (μM), 1 nM LDHA, NADH and pyruvate, stereochemistry of tested sample given
row,Structure (SMILES),IC50
1,"CC(C)(O)CCCOc1cccc(C2(c3ccsc3)CC(=O)C(Sc3ccccc3Cl)C(=O)N2)n1 (single isomer, unassigned) [Example 114, 3-((2-chlorophenyl)thio)-6-(6-((4-hydroxy-4-methyl-pentyl)oxy)pyridin-2-yl)-6-(thiophen-3-yl) piperidine-2,4-dione]",0.053 µM
2,"O=C1CC(c2ccsc2)(c2cccc(Oc3ccc(OC(F)(F)F)cc3)n2)NC(=O)C1Sc1ccccc1Cl (stereo not drawn) [Example 76, 3-(2-chlorophenyl)sulfanyl-6-(3-thienyl)-6-[6-[4-(trifluoromethoxy)phenoxy]-2-pyridyl] piperidine-2,4-dione]",0.015 µM
3,"CC(Oc1cccc(C2(c3ccsc3)CC(=O)C(Sc3ccccc3Cl)C(=O)N2)n1)C1CC1 (single isomer, unassigned) [Example 159, 3-((2-chlorophenyl)thio)-6-(6-(1-cyclopropyl-ethoxy)pyridin-2-yl)-6-(thiophen-3-yl)piperidine-2,4-dione]",0.004 µM
4,"Cn1nncc1-c1ccccc1Oc1cccc(C2(c3ccsc3)CC(=O)C(Sc3ccccc3Cl)C(=O)N2)n1 (stereo not drawn) [Example 21, 3-(2-chlorophenyl)sulfanyl-6-[6-[2-(3-methyltriazol-4-yl)phenoxy]-2-pyridyl]-6-(3-thienyl)piperidine-2,4-dione]",0.119 µM
5,"O=C1CC(c2ccsc2)(c2cccc(Sc3ccc(F)cc3)n2)NC(=O)C1Sc1ccccc1Cl (single isomer, unassigned) [Example 213, 3-(2-chlorophenyl)sulfanyl-6-[6-(4-fluorophenyl)sulfanyl-2-pyridyl]-6-(3-thienyl)piperidine-2,4-dione]",0.034 µM
6,"COc1cc(-c2cccc(C3(c4ccsc4)CC(=O)C(Sc4ccccc4Cl)C(=O)N3)n2)ccc1F (stereo not drawn) [Example 255, 3-((2-chlorophenyl)thio)-6-(6-(4-fluoro-3-methoxy-phenyl)pyridin-2-yl)-6-(thiophen-3-yl)piperidine-2,4-dione]",0.102 µM
7,"O=C1CC(c2ccsc2)(c2cccc(Oc3cccc4c3NCCC4)n2)NC(=O)C1Sc1ccccc1Cl (stereo not drawn) [Example 111, 3-((2-chlorophenyl)thio)-6-(6-((1,2,3,4-tetrahydro-quinolin-8-yl)oxy)pyridin-2-yl)-6-(thiophen-3-yl)piperidine-2,4-dione]",0.012 µM
8,"O=C1CC(c2ccsc2)(c2cccc(NCCC3CC3)n2)NC(=O)C1Sc1ccccc1Cl (stereo not drawn) [Example 173, 3-(2-chlorophenyl)sulfanyl-6-[6-(2-cyclopropyl-ethylamino)-2-pyridyl]-6-(3-thienyl)piperidine-2,4-dione]",0.183 µM
9,"O=C1CC(c2ccsc2)(c2cccc(OC3CCC3)n2)NC(=O)C1Sc1ccccc1Cl (stereo not drawn) [Example 222, 3-(2-chlorophenyl)sulfanyl-6-[6-(cyclobutoxy)-2-pyridyl]-6-(3-thienyl) piperidine-2,4-dione]",0.322 µM
10,"O=C1CC(c2ccsc2)(c2cccc(OCc3ccncc3)n2)NC(=O)C1Sc1ccccc1Cl (stereo not drawn) [Example 186, 3-(2-chlorophenyl)sulfanyl-6-[6-(4-pyridylmethoxy)-2-pyridyl]-6-(3-thienyl) piperidine-2,4-dione]",0.021 µM
11,"O=C1CC(c2ccc(OCCCO)cc2)(c2ccsc2)NC(=O)C1Sc1ccccc1Cl (stereo not drawn) [Example 28, 3-(2-chlorophenyl)sulfanyl-6-[4-(3-hydroxypropoxy)phenyl]-6-(3-thienyl)piperidine-2,4-dione]",0.031 µM
12,"O=C1CC(c2ccsc2)(c2cccc(Oc3cccc(C(F)F)c3)n2)NC(=O)C1Sc1ccccc1Cl (single isomer, unassigned) [Example 127, 3-(2-chlorophenyl)sulfanyl-6-[6-[3-(difluoromethyl)phenoxy]-2-pyridyl]-6-(3-thienyl)piperidine-2,4-dione]",0.008 µM
13,"O=C1CC(c2ccsc2)(c2cccc(Oc3cccc4c3NCCC4)n2)NC(=O)C1Sc1ccccc1Cl (stereo not drawn) [Example 102, 3-(2-chlorophenyl)sulfanyl-6-[6-(1,2,3,4-tetrahydro-quinolin-8-yloxy)-2-pyridyl]-6-(3-thienyl) piperidine-2,4-dione]",0.018 µM
14,"O=C1CC(c2ccsc2)(c2cccc(OCC3CCOCC3)n2)NC(=O)C1Sc1ccccc1Cl (single isomer, unassigned) [Example 209, 3-(2-chlorophenyl)sulfanyl-6-[6-(tetrahydropyran-4-ylmethoxy)-2-pyridyl]-6-(3-thienyl)piperidine-2,4-dione]",0.006 µM
15,"Cc1cc(Nc2cccc(C3(c4ccsc4)CC(=O)C(Sc4ccccc4Cl)C(=O)N3)n2)n(C)n1 (stereo not drawn) [Example 264, 3-((2-chlorophenyl)thio)-6-(6-((1,3-dimethyl-1H-pyrazol-5-yl)amino)pyridin-2-yl)-6-(thiophen-3-yl)piperidine-2,4-dione]",0.077 µM
16,"O=C1CCC(COc2cccc(C3(c4ccsc4)CC(=O)C(Sc4ccccc4Cl)C(=O)N3)n2)O1 (single isomer, unassigned) [Example 212, 3-(2-chlorophenyl)sulfanyl-6-[6-[(5-oxotetrahydrofuran-2-yl)methoxy]-2-pyridyl]-6-(3-thienyl)piperidine-2,4-dione]",0.03 µM
17,"O=C1CC(c2ccsc2)(c2cccc(Cc3ccc(F)c(F)c3)n2)NC(=O)C1Sc1ccccc1Cl (single isomer, unassigned) [Example 281, 3-((2-chlorophenyl)thio)-6-(6-(3,4-difluorobenzyl)pyridin-2-yl)-6-(thiophen-3-yl)piperidine-2,4-dione]",0.189 µM
18,"O=C1CC(c2ccsc2)(c2cccc(Oc3cccc4ccncc34)n2)NC(=O)C1Sc1ccccc1Cl (stereo not drawn) [Example 89, 3-(2-chlorophenyl)sulfanyl-6-[6-(8-iso-quinolyloxy)-2-pyridyl]-6-(3-thienyl)piperidine-2,4-dione]",0.018 µM
19,O=C1CC(c2ccsc2)(c2cccc(Oc3ccc(F)c(C(F)(F)F)c3)n2)NC(=O)C1Sc1ccccc1Cl (stereo not drawn) [Example 123],0.006 µM
20,"COCCCOc1cccc(C2(c3ccsc3)CC(=O)C(Sc3ccccc3Cl)C(=O)N2)n1 (single isomer, unassigned) [Example 228, 3-(2-chlorophenyl)sulfanyl-6-[6-(3-methoxypropoxy)-2-pyridyl]-6-(3-thienyl) piperidine-2,4-dione]",0.419 µM

# Second part, the compound after the results:
row,IC50,Structure (SMILES)
1,0.019 µM,"O=C1CC(c2ccsc2)(c2cccc(OCCC3CCCCC3)n2)NC(=O)C1Sc1ccccc1Cl (single isomer, unassigned) [Example 161, 3-(2-chlorophenyl)sulfanyl-6-[6-(2-cyclohexylethoxy)-2-pyridyl]-6-(3-thienyl) piperidine-2,4-dione]"
2,0.01 µM,"O=C1CC(c2ccsc2)(c2cccc(Oc3ccc(Cl)cc3)n2)NC(=O)C1Sc1ccccc1Cl (stereo not drawn) [Example 58, 6′-(4-chlorophenoxy)-5-((2-chlorophenyl)thio)-4-hydroxy-2-(thiophen-3-yl)-2,3-dihydro-[2,2′-bipyridin]-6(1H)-one]"
3,0.039 µM,"O=C1CC(c2ccsc2)(c2cccc(OCCC3CC3(F)F)n2)NC(=O)C1Sc1ccccc1Cl (stereo not drawn) [Example 20, 3-(2-chlorophenyl)sulfanyl-6-[6-[2-(2,2-difluorocyclopropyl)ethoxy]-2-pyridyl]-6-(3-thienyl)piperidine-2,4-dione]"
4,0.009 µM,"O=C1CC(c2ccsc2)(c2cccc(N3CC(C4CCOCC4)C3)n2)NC(=O)C1Sc1ccccc1Cl (stereo not drawn) [Example 232, 3-(2-chlorophenyl)sulfanyl-6-[6-(3-tetrahydropyran-4-ylazetidin-1-yl)-2-pyridyl]-6-(3-thienyl) piperidine-2,4-dione]"
5,0.02 µM,"O=C1CC(c2ccsc2)(c2cccc(OCC3CCC3)n2)NC(=O)C1Sc1ccccc1Cl (stereo not drawn) [Example 224, 3-(2-chlorophenyl)sulfanyl-6-[6-(cyclobutylmethoxy)-2-pyridyl]-6-(3-thienyl) piperidine-2,4-dione]"
6,0.037 µM,"O=C1CC(c2ccsc2)(c2cccc(Oc3cccc(Cl)c3)n2)NC(=O)C1Sc1ccccc1Cl (stereo not drawn) [Example 63, 6′-(3-chlorophenoxy)-5-((2-chlorophenyl)thio)-4-hydroxy-2-(thiophen-3-yl)-2,3-dihydro-[2,2′-bipyridin]-6(1H)-one]"
7,0.004 µM,"O=C1CC(c2ccsc2)(c2cccc(OCC3CC(F)(F)C3)n2)NC(=O)C1Sc1ccccc1Cl (single isomer, unassigned) [Example 165]"
8,0.175 µM,"Cc1cnc(Nc2cccc(C3(c4ccsc4)CC(=O)C(Sc4ccccc4Cl)C(=O)N3)n2)[nH]1 (stereo not drawn) [Example 276, 3-((2-chlorophenyl)thio)-6-(6-((5-methyl-1H-imidazol-2-yl)amino)pyridin-2-yl)-6-(thiophen-3-yl)piperidine-2,4-dione]"
9,0.119 µM,"CC(Oc1cccc(C2(c3ccsc3)CC(=O)C(Sc3ccccc3Cl)C(=O)N2)n1)c1cccc(F)c1 (stereo not drawn) [Example 312, 3-((2-chlorophenyl)thio)-6-(6-(1-(3-fluorophenyl)ethoxy)pyridin-2-yl)-6-(thiophen-3-yl)piperidine-2,4-dione]"
10,0.225 µM,"O=C1CC(c2ccsc2)(c2cccc(Nc3ccc(F)nc3)n2)NC(=O)C1Sc1ccccc1Cl [Example 317, (6R)-3-(2-chlorophenyl) sulfanyl-6-[6-[(6-fluoro-3-pyridyl)amino]-2-pyridyl]-6-(3-thienyl) piperidine-2,4-dione]"
11,0.009 µM,"O=C1CC(c2cccc(Oc3ccc(F)cc3)n2)(c2ccccc2O)NC(=O)C1Sc1ccccc1Cl (stereo not drawn) [Example 338, 5-(2-chlorophenyl)sulfanyl-2-[6-(4-fluorophenoxy)-2-pyridyl]-4-hydroxy-2-(2-hydroxyphenyl)-1,3-dihydropyridin-6-one]"
12,0.105 µM and 0.076 µM,"O=C1CC(c2ccsc2)(c2cccc(OCCC3COC3)n2)NC(=O)C1Sc1ccccc1Cl (stereo not drawn) [Example 16, 3-(2-chlorophenyl)sulfanyl-6-[6-[2-(oxetan-3-yl)ethoxy]-2-pyridyl]-6-(3-thienyl)piperidine-2,4-dione]"
13,0.005 µM,"O=C1CC(c2ccsc2)(c2cccc(Cc3ccc(Cl)c(F)c3)n2)NC(=O)C1Sc1ccccc1Cl (stereo not drawn) [Example 130, 6-(6-(4-chloro-3-fluoro-benzyl)pyridin-2-yl)-3-((2-chlorophenyl)thio)-6-(thiophen-3-yl)piperidine-2,4-dione]"
